{"source": "patent US20220257593A1", "about": "“CARABACHOL-BROMONIDINE FORMULATION TO ENHANCE ANTI-PRESBYOPIA EFFECTS” (Visus Therapeutics, Inc., priority 2019, published 2022)", "key": {"[1]": {"tested_on": "emmetropic and presbyopic subjects, non-dominant eye", "experiment": "Examples 7 and 13 crossover trial: pupil size (Colvard infrared pupilometer)", "type": "in vivo, human", "conditions": "for PS (mean pupil size): mean ± SD, ten subjects, pre-treatment 4.3 ± 0.5", "protocol": "(§1) A prospective, double-masked, randomized, controlled clinical trial was conducted.\n(§2) The 3% carbachol drops included 50 ppm of benzalkonium chloride."}, "[2]": {"tested_on": "emmetropic and presbyopic subjects, non-dominant eye", "experiment": "Examples 7 and 13 crossover trial: near visual acuity, combined vs separate 3% carbachol and 0.2% brimonidine, carbachol alone, brimonidine alone", "type": "in vivo, human", "conditions": "for NVA (mean near visual acuity): mean ± SD, ten subjects, pre-treatment 8.6 ± 1.5", "protocol": "Participants were volunteers selected at random.\nas §1\nParticipants were randomly selected volunteers.\nas §2"}, "[3]": {"tested_on": "presbyopic subjects, non-dominant eye", "experiment": "Example 8 dose range studies of carbachol and pilocarpine with and without brimonidine: near visual acuity (LogMAR) and pupil diameter", "type": "in vivo, human", "conditions": "for change in LogMAR VA, pilocarpine vs carbachol, each plus 0.2% brimonidine: FIGS. 12 and 13", "protocol": "Dose range studies were performed for carbachol and pilocarpine. […] Pilocarpine and carbachol were also compared to each other, with and without brimonidine."}, "[4]": {"tested_on": "emmetropic, myopic and hyperopic presbyopes"}, "[5]": {"tested_on": "presbyopic subjects", "conditions": "subjects receiving brimonidine drops"}, "[6]": {"tested_on": "presbyopic subjects", "experiment": "Example 8 dose range studies: tolerability, adverse symptoms and satisfaction survey", "source_text": "Both Groups 1 and 2 received the same pre- and post-treatment work-up and measurements: Age, gender, initial pupil size, and near vision acuity (NVA) were documented.\nThe survey asked the patients whether they would use the drops again."}, "[7]": {"experiment": "Example 8: stability of pilocarpine at neutral pH", "type": "physicochemical", "conditions": "needs about pH 5"}, "[8]": {"conditions": "FDA product insert for isoptocarpine; cited from earlier work"}}, "note": "Where “and” joins values, the source holds several entries; their conditions need not be identical. Identical values can stand only once. Entries after “also recorded” stand apart in the source; their conditions may differ. Like-named read-outs stand apart in the source and are kept apart here."}
{"compound": "C[N+](C)(C)CCOC(N)=O", "note": "[3% carbachol alone, carbachol]", "values": [{"measurement": "PS (mean pupil size)", "setting": "[1]; 1-h post-treatment", "result": "2.8 ± 0.3", "unit": "mm"}, {"measurement": "PS (mean pupil size)", "setting": "[1]; 2-h post-treatment", "result": "3 ± 0.3", "unit": "mm"}, {"measurement": "PS (mean pupil size)", "setting": "[1]; 4-h post-treatment", "result": "3.5 ± 0.3", "unit": "mm"}, {"measurement": "PS (mean pupil size)", "setting": "[1]; 8-h post-treatment", "result": "4 ± 0.3", "unit": "mm"}, {"measurement": "mean pupil size (PS)", "setting": "[1]; 1 h post-treatment, before treatment 4.3±0.5 mm", "result": "2.8±0.3", "unit": "mm"}, {"measurement": "mean pupil size (PS)", "setting": "[1]; 2 h post-treatment", "result": "3±0.3", "unit": "mm"}, {"measurement": "mean pupil size (PS)", "setting": "[1]; 4 h post-treatment", "result": "3.5±0.3", "unit": "mm"}, {"measurement": "mean pupil size (PS)", "setting": "[1]; 8 h post-treatment", "result": "4±0.3", "unit": "mm"}, {"measurement": "hours in which mean pupil size reached the target pupil size of <2.5 mm", "setting": "[1]; emmetropic presbyopes, FIG. 24", "result": "never achieved the target pupil size during hours 1-8"}, {"measurement": "NVA (mean near visual acuity)", "setting": "[2]; 1-h post-treatment", "result": "5.5 ± 1", "unit": "J"}, {"measurement": "NVA (mean near visual acuity)", "setting": "[2]; 2-h post-treatment", "result": "5.9 ± 0.8", "unit": "J"}, {"measurement": "NVA (mean near visual acuity)", "setting": "[2]; 4-h post-treatment", "result": "7 ± 1.2", "unit": "J"}, {"measurement": "NVA (mean near visual acuity)", "setting": "[2]; 8-h post-treatment", "result": "7.5 ± 1", "unit": "J"}, {"measurement": "mean near visual acuity (NVA)", "setting": "[2]; 1 h post-treatment, before treatment J 8.6±1.5, 10 subjects crossover", "result": "5.5 ± 1", "unit": "J"}, {"measurement": "mean near visual acuity (NVA)", "setting": "[2]; 2 h post-treatment", "result": "5.9 ± 0.8", "unit": "J"}, {"measurement": "mean near visual acuity (NVA)", "setting": "[2]; 4 h post-treatment", "result": "7 ± 1.2", "unit": "J"}, {"measurement": "mean near visual acuity (NVA)", "setting": "[2]; 8 h post-treatment", "result": "7.5 ± 1", "unit": "J"}, {"measurement": "hours in which mean near visual acuity (NVA) was ≥20/40", "setting": "[2]; emmetropic presbyopes, FIG. 25", "result": "never achieved an NVA of ≥20/40"}]}
{"compound": "Brc1c(NC2=NCCN2)ccc2nccnc12", "note": "[Brimonidine 0.2%, brimonidine]", "values": [{"measurement": "PS (mean pupil size)", "setting": "[1]; 1-h post-treatment", "result": "3.95 ± 0.5", "unit": "mm"}, {"measurement": "PS (mean pupil size)", "setting": "[1]; 2-h post-treatment", "result": "4.2 ± 0.4", "unit": "mm"}, {"measurement": "PS (mean pupil size)", "setting": "[1]; 4-h post-treatment", "result": "4.3 ± 0.5", "unit": "mm"}, {"measurement": "PS (mean pupil size)", "setting": "[1]; 8-h post-treatment", "result": "4.3 ± 0.5", "unit": "mm"}, {"measurement": "effect on pupil size or NVA", "setting": "[1]; 50 ppm benzalkonium chloride", "result": "virtually no effect"}, {"measurement": "difference in mean PS before treatment and at any time point after treatment", "setting": "[1]; P >0.05", "result": "no statistically significant difference"}, {"measurement": "miotic effect", "setting": "[1]; first hour after instillation, light luminance conditions, not significant (P >0.05)", "result": "mild miotic effect"}, {"measurement": "synergy with carbachol and pilocarpine", "setting": "[3]; 0.2% brimonidine", "result": "synergistic with both carbachol and pilocarpine"}, {"measurement": "difference in mean NVA before treatment and at any time point after treatment", "setting": "[4]; Group 1 emmetropic presbyopes", "result": "No statistically significant difference in mean NVA"}, {"measurement": "difference in mean NVA before treatment and at any time point after treatment", "setting": "[4]; Group 2 myopic presbyopes", "result": "No statistically significant difference in mean NVA"}, {"measurement": "difference in mean NVA before treatment and at any time point after treatment", "setting": "[4]; Group 3 hyperopic presbyopes", "result": "No statistically significant difference in mean NVA"}, {"measurement": "NVA (mean near visual acuity)", "setting": "[2]; 1-h post-treatment", "result": "7.7 ± 1.3", "unit": "J"}, {"measurement": "NVA (mean near visual acuity)", "setting": "[2]; 2-h post-treatment", "result": "8.2 ± 1.3", "unit": "J"}, {"measurement": "NVA (mean near visual acuity)", "setting": "[2]; 4-h post-treatment", "result": "8.5 ± 1.4", "unit": "J"}, {"measurement": "NVA (mean near visual acuity)", "setting": "[2]; 8-h post-treatment", "result": "8.6 ± 1.5", "unit": "J"}, {"measurement": "difference in mean NVA before treatment and at any time point after treatment", "setting": "[2]; P >0.05", "result": "no statistically significant difference"}, {"measurement": "mean change / improvement in near visual acuity compared among combination, separate drops, carbachol alone, brimonidine alone", "setting": "[2]; over eight hours", "result": "the least"}, {"measurement": "mild burning sensation, number of subjects", "setting": "[5]", "result": 10, "unit": "subjects"}]}
{"compound": "CC[C@@H]1C(=O)OC[C@@H]1Cc1cncn1C", "note": "[Pilo Alone]", "values": [{"measurement": "Pilo Alone 1 hr nVA", "setting": "[3]; Pilo 0.5%, individual patients", "result": "3 J and 6 J and 5 J"}, {"measurement": "Pilo Alone 1 hr pupil", "setting": "[3]; Pilo 0.5%, individual patients", "result": "3.8 and 3 (2×)"}, {"measurement": "Pilo Alone 2 hrs nVA", "setting": "[3]; Pilo 0.5%, individual patients", "result": "5 J (2×) and 3 J (2×)"}, {"measurement": "Pilo Alone 2 hrs pupil", "setting": "[3]; Pilo 0.5%, individual patients", "result": "3 and 4 and 2.5 and 3.3"}, {"measurement": "Pilo Alone 4 hrs nVA", "setting": "[3]; Pilo 0.5%, individual patients", "result": "5 J (3×) and 3 J"}, {"measurement": "Pilo Alone 4 hrs pupil", "setting": "[3]; Pilo 0.5%, individual patients", "result": "3.3 and 4 and 3 and 4.2"}, {"measurement": "Pilo Alone 1 hr nVA", "setting": "[3]; Pilo 1%, individual patients", "result": "3 J (2×) and 2 J and 8 J"}, {"measurement": "Pilo Alone 1 hr pupil", "setting": "[3]; Pilo 1%, individual patients", "result": "2.5 (2×) and 1.5 and 3"}, {"measurement": "Pilo Alone 2 hrs nVA", "setting": "[3]; Pilo 1%, individual patients", "result": "3 J and 2 J (2×) and 8 J"}, {"measurement": "Pilo Alone 2 hrs pupil", "setting": "[3]; Pilo 1%, individual patients", "result": "3 (2×) and 1.5 and 2.5"}, {"measurement": "Pilo Alone 4 hrs nVA", "setting": "[3]; Pilo 1%, individual patients", "result": "5 J (2×) and 3 J and 10 J"}, {"measurement": "Pilo Alone 4 hrs pupil", "setting": "[3]; Pilo 1%, individual patients", "result": "4 (2×) and 2.5 and 3"}, {"measurement": "Pilo Alone 1 hr nVA", "setting": "[3]; Pilo .05%, patient 5", "result": 3, "unit": "J"}, {"measurement": "Pilo Alone 1 hr pupil", "setting": "[3]; Pilo .05%, patient 5", "result": 2.5}, {"measurement": "Pilo Alone 4 hrs pupil", "setting": "[3]; Pilo […], individual patients", "result": 4}]}
{"compound": "C[N+](C)(C)CCOC(N)=O", "note": "[carbachol, reference compound]", "values": [{"measurement": "change in LogMAR VA, pilocarpine vs carbachol, each plus 0.2% brimonidine", "setting": "[3]", "result": "favored carbachol for hours 8 and 10"}, {"measurement": "duration of effect", "setting": "[3]; in vivo", "result": 8, "unit": "h"}, {"measurement": "dose response for tolerability", "setting": "[6]; carbachol […], […], 3% plus brimonidine, seven days, FIG. 15", "result": "An inverse dose response"}]}
{"compound": "CC[C@@H]1C(=O)OC[C@@H]1Cc1cncn1C", "note": "[pilocarpine, reference compound]", "values": [{"measurement": "change in LogMAR VA, pilocarpine vs carbachol, each plus 0.2% brimonidine", "setting": "[3]", "result": "favored pilocarpine for hours 1 and 2"}, {"measurement": "onset and duration of effect", "setting": "[3]; compared with carbachol", "result": "more immediate effect; also recorded: shorter duration"}, {"measurement": "burning", "setting": "[6]; in vivo", "result": "burned"}, {"measurement": "stability at neutral pH", "setting": "[7]", "result": "unstable at neutral pH"}, {"measurement": "brow ache rate", "setting": "[8]", "result": "> 5", "unit": "%"}]}
